How the values were obtained:
[1] = target: T1, EP2 (Homo sapiens, UniProt P43116); test: EP2 cAMP activity study; type: cell-based
Experimental: (§1) Data from running binding and activity studies on the compounds of the invention were carried out as described in U.S. Pat. No. 7,427,685, the contents of which are incorporated herein by reference.

[2] = target: T1, EP2; test: EP2 binding study; conditions: read-out: EP2 Data (EC50 in nM) Ki
Experimental: as §1

[3] = target: T2, EP4 (Homo sapiens, UniProt P35408); test: EP4 cAMP activity study; type: cell-based
T2 sequence (P35408 whole entry): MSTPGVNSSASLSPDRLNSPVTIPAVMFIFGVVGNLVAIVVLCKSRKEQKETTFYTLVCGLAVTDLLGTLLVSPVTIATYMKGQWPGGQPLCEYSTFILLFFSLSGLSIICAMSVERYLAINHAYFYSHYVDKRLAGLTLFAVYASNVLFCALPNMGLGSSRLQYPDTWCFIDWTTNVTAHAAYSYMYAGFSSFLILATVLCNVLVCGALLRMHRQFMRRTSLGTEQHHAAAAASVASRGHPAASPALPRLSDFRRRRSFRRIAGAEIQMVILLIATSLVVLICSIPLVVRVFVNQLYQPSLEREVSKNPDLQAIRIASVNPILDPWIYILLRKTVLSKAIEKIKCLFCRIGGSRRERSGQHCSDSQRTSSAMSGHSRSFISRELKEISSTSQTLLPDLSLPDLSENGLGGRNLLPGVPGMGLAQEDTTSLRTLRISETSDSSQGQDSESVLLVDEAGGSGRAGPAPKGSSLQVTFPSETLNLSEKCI
Experimental: as §1

[4] = target: T2, EP4; test: EP4 binding study; conditions: read-out: EP4 data (EC50 in nM) KI
Experimental: as §1

[5] = target: T3, hEP3A (Homo sapiens, UniProt P43115); test: Other receptors activity, hEP3A; type: cell-based
T3 sequence (P43115 1-390): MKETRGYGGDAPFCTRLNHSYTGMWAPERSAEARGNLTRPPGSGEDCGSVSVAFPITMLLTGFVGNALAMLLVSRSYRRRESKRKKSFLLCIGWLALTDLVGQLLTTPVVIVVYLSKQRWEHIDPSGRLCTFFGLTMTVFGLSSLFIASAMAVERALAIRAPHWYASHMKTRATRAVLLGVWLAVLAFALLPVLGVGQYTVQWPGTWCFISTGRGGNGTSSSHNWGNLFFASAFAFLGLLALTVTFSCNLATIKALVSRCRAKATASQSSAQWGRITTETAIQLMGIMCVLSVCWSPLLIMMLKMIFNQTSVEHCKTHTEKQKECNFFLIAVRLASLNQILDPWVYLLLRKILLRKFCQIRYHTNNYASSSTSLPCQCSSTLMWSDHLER
Experimental: as §1

T1 sequence (P43116 whole entry): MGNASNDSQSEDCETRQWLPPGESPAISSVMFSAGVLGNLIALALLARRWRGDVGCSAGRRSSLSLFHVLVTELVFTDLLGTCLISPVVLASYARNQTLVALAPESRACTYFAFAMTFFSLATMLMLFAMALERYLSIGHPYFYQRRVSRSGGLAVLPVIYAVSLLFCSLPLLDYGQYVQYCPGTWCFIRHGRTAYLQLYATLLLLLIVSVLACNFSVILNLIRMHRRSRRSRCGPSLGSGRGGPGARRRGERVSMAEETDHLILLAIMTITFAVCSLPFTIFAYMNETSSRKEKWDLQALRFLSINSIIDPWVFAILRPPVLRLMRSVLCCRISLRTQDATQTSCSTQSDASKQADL

Compound: O=C(O)c1ccc(CC2CCc3c(cccc3-c3cccc(C(F)(F)F)c3)C2=O)cc1 (stereo not drawn) [Example 1, 4-((1-Oxo-5-(3-(trifluoromethyl)phenyl)-1,2,3,4-tetrahydronaphthalen-2-yl)methyl)benzoic acid]
- EC50 [1]: 6 nM
- Ki [2]: 70 nM
- EC50 [3]: 196 nM
- Ki [4]: 149 nM

Compound: O=C(O)c1ccc(CC2Cc3c(cccc3-c3cccc(C(F)(F)F)c3)C2=O)cc1 (stereo not drawn) [Example 2, 4-((1-Oxo-4-(3-(trifluoromethyl)phenyl)-2,3-dihydro-1H-inden-2-yl)methyl)benzoic acid]
- EC50 [1]: 1 nM
- Ki [2]: 56 nM
- EC50 [3]: 108 nM
- Ki [4]: 18 nM

Compound: O=C(O)c1ccc(CC2Cc3c(cccc3-c3cccc(Cl)c3)C2=O)cc1 (stereo not drawn) [Example 3, 4-((4-(3-Chlorophenyl)-1-oxo-2,3-dihydro-1H-inden-2-yl)methyl)benzoic acid]
- EC50 [1]: 26 nM
- Ki [2]: 130 nM
- EC50 [3]: 1070 nM
- Ki [4]: 954 nM

Compound: O=C(O)c1ccc(CC2Cc3c(cccc3-c3cccc4ccccc34)C2=O)cc1 (stereo not drawn) [Example 4, 4-((4-(Naphthalen-1-yl)-1-oxo-2,3-dihydro-1H-inden-2-yl)methyl)benzoic acid]
- Ki [2]: 2080 nM
- EC50 [3]: 1240 nM
- Ki [4]: 1280 nM

Compound: O=C(O)c1ccc(CC2Cc3c(cccc3-c3ccc4ccccc4c3)C2=O)cc1 (stereo not drawn) [Example 5, 4-((4-(Naphthalen-2-yl)-1-oxo-2,3-dihydro-1H-inden-2-yl)methyl)benzoic acid]
- EC50 [1]: 40 nM
- Ki [2]: 61 nM
- EC50 [3]: > 10000 nM
- Ki [4]: 1190 nM

Compound: O=C(O)c1ccc(CC2Cc3c(cccc3-c3ccc(C(F)(F)F)cc3)C2=O)cc1 (stereo not drawn) [Example 6, 4-((1-Oxo-4-(4-(trifluoromethyl)phenyl)-2,3-dihydro-1H-inden-2-yl)methyl)benzoic acid]
- Ki [2]: 338 nM
- EC50 [3]: > 10000 nM
- Ki [4]: 4450 nM

Compound: O=C(O)c1ccc(CC2Cc3c(cccc3-c3ccccc3C(F)(F)F)C2=O)cc1 (stereo not drawn) [Example 7, 4-((1-Oxo-4-(2-(trifluoromethyl)phenyl)-2,3-dihydro-1H-inden-2-yl)methyl)benzoic acid]
- Ki [2]: > 10000 nM
- EC50 [3]: > 10000 nM
- Ki [4]: 7090 nM

Compound: COc1cc(-c2cccc3c2CC(Cc2ccc(C(=O)O)cc2)C3=O)cc(C(F)(F)F)c1 (stereo not drawn) [Example 8, 4-((4-(3-Methoxy-5-(trifluoromethyl)phenyl)-1-oxo-2,3-dihydro-1H-inden-2-yl)methyl)benzoic acid]
- EC50 [1]: 11 nM
- Ki [2]: 21 nM
- EC50 [3]: 1050 nM
- Ki [4]: 889 nM

Compound: O=C(O)c1ccc(CC2Cc3c(cccc3-c3cc(C(F)(F)F)cc(C(F)(F)F)c3)C2=O)cc1 (stereo not drawn) [Example 9, 4-((4-(3,5-Bis(trifluoromethyl)phenyl)-1-oxo-2,3-dihydro-1H-inden-2-yl)methyl)benzoic acid]
- EC50 [1]: 5 nM
- Ki [2]: 9 nM
- EC50 [3]: 1630 nM
- Ki [4]: 1780 nM

Compound: O=C(O)c1ccc(CC2Cc3c(cccc3-c3ccc(Cl)c(C(F)(F)F)c3)C2=O)cc1 (stereo not drawn) [Example 10, 4-((4-(4-Chloro-3-(trifluoromethyl)phenyl)-1-oxo-2,3-dihydro-1H-inden-2-yl)methyl)benzoic acid]
- EC50 [1]: 1 nM
- Ki [2]: 3 nM
- EC50 [3]: 1090 nM
- Ki [4]: 1350 nM

Compound: COc1cccc(-c2cccc3c2CC(Cc2ccc(C(=O)O)cc2)C3=O)c1 (stereo not drawn) [Example 11, 4-((4-(3-Methoxyphenyl)-1-oxo-2,3-dihydro-1H-inden-2-yl)methyl)benzoic acid]
- Ki [2]: 333 nM
- EC50 [3]: 186 nM
- Ki [4]: 525 nM

Compound: Cc1cccc(-c2cccc3c2CC(Cc2ccc(C(=O)O)cc2)C3=O)c1 (stereo not drawn) [Example 12, 4-((1-Oxo-4-(m-tolyl)-2,3-dihydro-1H-inden-2-yl)methyl)benzoic acid]
- EC50 [1]: 217 nM
- Ki [2]: 191 nM
- EC50 [3]: 1170 nM
- Ki [4]: 610 nM

Compound: O=C(O)c1ccc(CC2Cc3c(cccc3-c3ccccc3)C2=O)cc1 (stereo not drawn) [Example 13, 4-((1-Oxo-4-phenyl-2,3-dihydro-1H-inden-2-yl)methyl)benzoic acid]
- Ki [2]: 1140 nM
- EC50 [3]: 2440 nM
- Ki [4]: 1010 nM

Compound: O=C(O)c1ccc(CC2CCc3c(cccc3-c3cccc(C(F)(F)F)c3)C2=O)s1 (stereo not drawn) [Example 14, 5-((1-Oxo-5-(3-(trifluoromethyl)phenyl)-1,2,3,4-tetrahydronaphthalen-2-yl)methyl)thiophene-2-carboxylic acid]
- EC50 [1]: 79 nM
- Ki [2]: 1390 nM
- EC50 [3]: 341 nM
- Ki [4]: 1070 nM

Compound: O=C(O)c1ccc(CC2Cc3c(cccc3-c3cccc(C(F)(F)F)c3)C2=O)s1 (stereo not drawn) [Example 15, 5-((1-Oxo-4-(3-(trifluoromethyl)phenyl)-2,3-dihydro-1H-inden-2-yl)methyl)thiophene-2-carboxylic acid]
- EC50 [1]: 11 nM
- Ki [2]: 131 nM
- EC50 [3]: 54 nM
- Ki [4]: 137 nM
- EC50 [5]: > 10000 nM

Compound: O=C(O)c1ccc(CC2Cc3c(cccc3-c3cccc(Cl)c3)C2=O)s1 (stereo not drawn) [Example 16, 5-((4-(3-Chlorophenyl)-1-oxo-2,3-dihydro-1H-inden-2-yl)methyl)thiophene-2-carboxylic acid]
- EC50 [1]: 62 nM
- Ki [2]: 199 nM
- EC50 [3]: 300 nM
- Ki [4]: 505 nM

Compound: O=C(O)c1cc(CC2Cc3c(cccc3-c3cccc(C(F)(F)F)c3)C2=O)cs1 (stereo not drawn) [Example 17, 4-((1-Oxo-4-(3-(trifluoromethyl)phenyl)-2,3-dihydro-1H-inden-2-yl)methyl)thiophene-2-carboxylic acid]
- EC50 [1]: 695 nM
- Ki [2]: 674 nM
- EC50 [3]: > 10000 nM
- Ki [4]: 7 nM

Compound: O=C(O)c1csc(CC2Cc3c(cccc3-c3cccc(C(F)(F)F)c3)C2=O)c1 (stereo not drawn) [Example 18, 5-((1-Oxo-4-(3-(trifluoromethyl)phenyl)-2,3-dihydro-1H-inden-2-yl)methyl)thiophene-3-carboxylic acid]
- EC50 [1]: 179 nM
- Ki [2]: 96 nM
- EC50 [3]: 4970 nM
- Ki [4]: 5 nM

Compound: O=C(O)c1cccc(CC2Cc3c(cccc3-c3cccc(C(F)(F)F)c3)C2=O)c1 (stereo not drawn) [Example 19, 3-((1-Oxo-4-(3-(trifluoromethyl)phenyl)-2,3-dihydro-1H-inden-2-yl)methyl)benzoic acid]
- Ki [2]: 6760 nM
- EC50 [3]: 1470 nM
- Ki [4]: 2740 nM

Compound: COc1ccc(-c2cccc(C(F)(F)F)c2)c2c1C(=O)C(Cc1ccc(C(=O)O)cc1)C2 (stereo not drawn) [Example 20, 4-((7-Methoxy-1-oxo-4-(3-(trifluoromethyl)phenyl)-2,3-dihydro-1H-inden-2-yl)methyl)benzoic acid]
- Ki [2]: 7360 nM
- EC50 [3]: > 10000 nM
- Ki [4]: 954 nM

Compound: COc1cc(OC)cc(-c2cccc3c2CC(Cc2ccc(C(=O)O)cc2)C3=O)c1 (stereo not drawn) [Example 21]
- EC50 [1]: 79 nM
- Ki [2]: 241 nM
- EC50 [3]: 874 nM
- Ki [4]: 486 nM

— patent publication US9415027B2, “Therapeutic agents” (Allergan, Inc., priority 2013, dated 2016)
